Results: patent US20070265194A1, “Agents for the treatment of viral infections” (priority 2000, published 2007)
Peptide text beside a SMILES is read from it. * marks the point of attachment. Cbz = O=C(OCc1ccccc1)*

Key:
[1] = system: HIV-1NL4-3; test: Infectivity of released virions, end point titration (TCID50) on C8166 cells; type: cell-based; details: for Infectivity Titer/ng p24^CA / Virus titer/ml TCID50 / Infectivity % of “no zLLL”: 40 μM zLLL; for Infectivity % of “no zLLL”: control = 100; for reduction of infectious virions in the cell culture medium: 40 microM zLLL
Method: Cultures of human CD4^+ T cells, A3.01 were infected with HIV-1NL4-3 and cultured in RPMI for approx. 7 days. Approx. 80% of the cell culture medium was replaced every other day. The amount of released virus particles was determined by testing samples of the cell culture supernatants for activity of virus-associated RT. Furthermore, the spread of the infection was monitored by indirect immunofluorescence with anti-CA antibodies. The time of maximum spread of the infection in the culture was determined on the basis of RT accumulation and of syncytia formation. At the time of maximum virus production (approx. 7 days after infection), fresh noninfected A3.01 cells were mixed with the infected culture in a 1:1 ratio and incubated for another 24 h. This makes it possible to quasi-synchronize the infection and to maximize the number of infected cells with maximum HIV expression at a given time. The cells were divided into parallel cultures, washed with PBS and treated with 40 microM zLLL in medium for 4.5 hours. Washing of the cells and culturing in fresh medium was necessary in order to monitor the newly produced viruses during the harvest period of 4.5 hours (+zLLL “0 hr”). It was assumed that there is a certain lag phase of approx. 1 hour, corresponding to HIV-1 assembly, between the start of the treatment with proteasome inhibitors and the release of defective virions. In order to monitor the virus production of cells with inactivated proteasomes at the start of the harvest period, parallel cultures were pretreated with 40 microm zLLL prior to the washing step for one (+zLLL “−1 hr”) or 6 hours (+zLLL “−6 hr”). A parallel culture was incubated without inhibitor (no zLLL). The virus-containing cell culture supernatants were collected, filtered, and the amount of Gag proteins was quantified by means of a standardized capture ELISA using anti-CA antibodies with different epitopes. […] The infectivity of the culture supernatants was determined by means of end point titration (detailed in example 6d) and is indicated as TCID50 in Table 1. The specific infectivity was determined by dividing TCID50 by the total amount of Gag and is listed in Table 1 as percentage infectivity of the control culture (no zLLL=100%). Both the release of Gag proteins and the infectivity of the released virions are shown to be inhibited after zLLL treatment. This effect increases with time, and infectious virions in the cell culture medium are reduced by 84% after 4.5 hours and by 98% after another 6 hours of pretreatment (Table 1).
CD4^+ T cells (A3.01) were infected with HIV-1NL4-3, at the time of maximum virus production (approx. 7 days post infection), parallel cultures were treated either without or with 40 μM zLLL for 1 (+zLLL “−1 hr”) or 6 hours (+zLLL “−6 hr”). This was followed by washing the cells and another 4.5 hours of incubating with or without 40 μM zLLL. In a parallel culture, cells were treated with 40 μM zLLL immediately after washing (+zLLL “0 hr”). The virus-containing supernatants were collected, and the amount of CA antigen was quantified by means of ELISA. The specific infectivity was determined as the infectious virus titer per nanog of CA and depicted relative to the untreated control culture (100%).
Acute HIV-1NL4-3-infected A3.01 cells were treated with 40 microM zLLL for various times, as indicated in exemplary embodiment 1. Cell-free cell culture supernatant was harvested and filtered (pore size=0.45 microm). The relative quantity of released virions was quantified by means of a p24^CA-antigen capture ELISA. For the purpose of virus titration, in each case 8 parallel cultures of C8166 cells were infected with the particular viral preparations, in a serial 10-fold dilution. The infectivity titer was determined as 50% cell culture infectious dose (TCID50), namely by determining syncytia formation for each culture and dilution step on day 10 post infection. […]

[2] = system: HIV-1NL4-3; test: Virus release from HIV-1-infected A3.01 T cells, p24 CA capture ELISA; type: cell-based
Method: Cultures of human CD4^+ T cells, A3.01 were infected with HIV-1NL4-3 and cultured in RPMI for approx. 7 days. Approx. 80% of the cell culture medium was replaced every other day. The amount of released virus particles was determined by testing samples of the cell culture supernatants for activity of virus-associated RT. Furthermore, the spread of the infection was monitored by indirect immunofluorescence with anti-CA antibodies. The time of maximum spread of the infection in the culture was determined on the basis of RT accumulation and of syncytia formation. At the time of maximum virus production (approx. 7 days after infection), fresh noninfected A3.01 cells were mixed with the infected culture in a 1:1 ratio and incubated for another 24 h. This makes it possible to quasi-synchronize the infection and to maximize the number of infected cells with maximum HIV expression at a given time. The cells were divided into parallel cultures, washed with PBS and treated with 40 microM zLLL in medium for 4.5 hours. […] The virus-containing cell culture supernatants were collected, filtered, and the amount of Gag proteins was quantified by means of a standardized capture ELISA using anti-CA antibodies with different epitopes. […] The infectivity of the culture supernatants was determined by means of end point titration (detailed in example 6d) and is indicated as TCID50 in Table 1. The specific infectivity was determined by dividing TCID50 by the total amount of Gag and is listed in Table 1 as percentage infectivity of the control culture (no zLLL=100%). […]
CD4^+ T cells (A3.01) were infected with HIV-1NL4-3, at the time of maximum virus production (approx. 7 days post infection), parallel cultures were treated either without or with 40 μM zLLL for 1 (+zLLL “−1 hr”) or 6 hours (+zLLL “−6 hr”). […] The virus-containing supernatants were collected, and the amount of CA antigen was quantified by means of ELISA. The specific infectivity was determined as the infectious virus titer per nanog of CA and depicted relative to the untreated control culture (100%). […]

[3] = system: HIV-1NL4-3; test: HIV-1 replication in A3.01 cell culture, RT activity in supernatant; type: cell-based; details: for productive infection in the culture (RT accumulation): 5 microM, approx. 2 weeks
[4] = molecular target: HIV-1 protease (Human immunodeficiency virus type 1 group M subtype B, UniProt P04585); test: In vitro Gag processing of recombinant Pr55 by recombinant HIV-1 protease, Western blot; type: biochemical; details: for inhibition of protease activity: 10-fold higher concentration than in the cell culture, 30 min reaction, FIG. 3 reactions 4-9; for inhibitory action on Gag processing by HIV-1 protease: inhibitor concentration of up to 100 microM, enzyme-to-substrate ratio 1:25
Source text: Therefore, a possible influence of proteasome inhibitors on the enzymic activity of the HIV-1 protease is investigated within the framework of the invention by studying the in vitro processing of Gag polyprotein (for this, see exemplary embodiment 4). For this purpose, according to the invention, recombinant Pr55 is expressed in insect cells and purified from released virus-like particles. Enzymatically active HIV-1 protease is expressed in E. coli and chromatographically purified. The specific activity of the protease is determined by means of titration of the active sites. Pr55 and protease are set to an enzyme-to-substrate ratio of 1:25 and incubated for a defined time under conditions under which only approx. 50% of the substrate Pr55 is proteolytically processed. These reaction conditions allow sensitive detection of small effects on the enzymic activity of the protease.
Recombinant HIV-1 Gag polyprotein Pr55 was prepared in insect cells and recombinant HIV-1 protease was prepared in E. coli. The experimental details of expression, purification and determination of the enzymic activity as well as carrying out the in vitro cleavage reactions and Western blots are illustrated in more detail in Example 6f. The enzyme-to-substrate ratios (protease-Pr55 ratio) were chosen in such a way that substrate conversion was relatively slow. After 30 min of reaction, approx. 50% of Pr55 had been cleaved. Under these conditions it is possible to determine even weakly inhibitory effects on the enzymic activity of the protease.
Myristylated Pr55 of HIV-1 was produced from virus-like particles which were released from insect cells infected with recombinant baculovirus Gag12myr. The virus-like particles were purified by centrifugation through a 20% sucrose layer. Recombinant HIV-1 protease expressed in E. coli was purified by means of gel filtration chromatography on Superose 12. The enzyme concentration was determined by means of active-site titration. For cleavage reactions, usually 1 μM Pr55 was incubated with 40 nM (nanomol) PR in reaction buffer (50 mM MES pH 6.5, 300 mM NaCl, 2 mM DTT, 1 mM EDTA, 0.1% Triton-X 100) at 37° C. for 30 min. In order to ensure maximum saturation of PR with inhibitors, PR was preincubated with the particular inhibitor for 5 min, prior to the start of the cleavage reactions. The cleavage reactions were stopped by adding SDS sample buffer and boiling the sample for 10 min. The cleavage products were fractionated in 10% SDS-PAGE and then detected by means of Western blot. For this purpose, anti-CA-specific antibodies were used which were detected by means of anti-rabbit IgG-peroxidase conjugate and chemiluminescence reaction.
Recombinant Pr55 was isolated from virus-like particles which had been produced by insect cells infected with recombinant bacculovirus. Recombinant HIV-1 protease was expressed in E. coli, purified, and the specific activity was determined by active-site titration. The quantities of Pr55 and protease were mixed with an enzyme-to-substrate ratio of 1:25 and incubated at 37° C. for 30 min. The reaction was stopped by adding SDS sample buffer. The cleavage reactions were then studied by Western blot analysis with CA-specific antiserum. Pr55, CA and intermediate processing product MA-Ca were made visible, after antibody binding, by means of a chemiluminescence reaction. […]

[5] = system: HIV-1NL4-3; type: cell-based
[6] = system: DHBV; test: Primary and secondary DHBV infection in primary duck hepatocytes, core immunofluorescence; type: cell-based, duck hepatitis B virus
[7] = molecular target: 20S proteasome (Homo sapiens, UniProt P28074); details: in vitro; cited from earlier work
[8] = system: HepG2
[9] = system: mouse thymus cell lines; details: cited from earlier work

CC(C)C[C@@H](C=O)NC(=O)[C@H](CC(C)C)NC(=O)[C@H](CC(C)C)NC(=O)OCc1ccccc1 [zLLL, N-carbobenzoxyl-L-leucinyl-L-leucinyl-L-leucinal] (Cbz-Leu-Leu-Leu-aldehyde)
Infectivity Titer/ng p24^CA ([1]; “0 hr”, 4.5 hours harvest): 1.0 × 10^4 Titer/ng p24^CA
Virus titer/ml TCID50 ([1]; “0 hr”, 4.5 hours harvest): 1.2 × 10^6 TCID50/ml
Infectivity % of “no zLLL” ([1]; “0 hr”, 4.5 hours harvest): 14%
Infectivity Titer/ng p24^CA ([1]; “−1 hr” plus 4.5 hours harvest): 5.0 × 10^3 Titer/ng p24^CA
Virus titer/ml TCID50 ([1]; “−1 hr” plus 4.5 hours harvest): 4.4 × 10^5 TCID50/ml
Infectivity % of “no zLLL” ([1]; “−1 hr” plus 4.5 hours harvest): 7%
Infectivity Titer/ng p24^CA ([1]; “−6 hr” plus 4.5 hours harvest): 1.5 × 10^3 Titer/ng p24^CA
Virus titer/ml TCID50 ([1]; “−6 hr” plus 4.5 hours harvest): 3.8 × 10^4 TCID50/ml
Infectivity % of “no zLLL” ([1]; “−6 hr” plus 4.5 hours harvest): 2%
reduction of infectious virions in the cell culture medium ([1]; after 4.5 hours): 84%
reduction of infectious virions in the cell culture medium ([1]; after another 6 hours of pretreatment): 98%
Virus release ng p24^CA/ml ([2]; 40 μM zLLL added immediately after washing (“0 hr”), 4.5 hours harvest, A3.01): 122 ng p24^CA/ml
Virus release ng p24^CA/ml ([2]; 40 μM zLLL, 1 hour pretreatment (“−1 hr”) plus 4.5 hours harvest): 88 ng p24^CA/ml
Virus release ng p24^CA/ml ([2]; 40 μM zLLL, 6 hours pretreatment (“−6 hr”) plus 4.5 hours harvest): 26 ng p24^CA/ml
effect on HIV-1 replication ([3]; 1 microM): completely inhibits replication
productive infection in the culture (RT accumulation) ([3]; FIG. 4 panel 1): no productive infection at all
productive infection in the culture (RT accumulation) ([3]; FIG. 4 panel 2): only a very reduced productive infection
effect on HIV-1 replication ([3]; 100 nanoM): relatively weak inhibitory effect
inhibition of protease activity [4]: not possible to detect any inhibition
inhibitory action on Gag processing by HIV-1 protease [4]: no inhibitory action whatsoever
kinetics of intracellular Gag processing and of the release of virus-associated and free Gag [5]: distinct delay

Cc1ccc(C(=O)Nc2ccc(S(=O)(=O)O)c3cc(S(=O)(=O)O)cc(S(=O)(=O)O)c23)cc1NC(=O)c1cccc(NC(=O)Nc2cccc(C(=O)Nc3cc(C(=O)Nc4ccc(S(=O)(=O)O)c5cc(S(=O)(=O)O)cc(S(=O)(=O)O)c45)ccc3C)c2)c1 [suramin]
number of the core-expressing cells ([6]; 100 microg/ml, from three days after infection for three days): very greatly reduced
establishment of the primary infection ([6]; pretreatment 100 microg/ml, 2 h pre-infection): completely blocks

CC(C)c1nc(CN(C)C(=O)N[C@H](C(=O)N[C@@H](Cc2ccccc2)C[C@H](O)[C@H](Cc2ccccc2)NC(=O)OCc2cncs2)C(C)C)cs1 [ritonavir]
inhibition of chymotrypsin activity of the 20S proteasome [7]: can inhibit

CC(C)(C)NC(=O)[C@@H]1C[C@@H]2CCCC[C@@H]2CN1C[C@@H](O)[C@H](Cc1ccccc1)NC(=O)[C@H](CC(N)=O)NC(=O)c1ccc2ccccc2n1 [saquinavir]
in vitro processing of Pr55 ([4]; control, FIG. 3 reaction 10): complete blockage

C=C(C)C[C@H](NC(=O)[C@H](CO)NC(=O)CCCCC(C)C)C(=O)[C@@]1(CO)CO1 [eponemycin]
tolerability in HepG2 [8]: still tolerated well
number of core-positive cells compared to untreated cultures ([6]; 1 μM, day 3 to day 6 after infection): much lower number of core-positive cells

CC(=O)N[C@@H](CSC(=O)[C@]1([C@@H](O)C(C)C)NC(=O)[C@H](C)[C@@H]1O)C(=O)O [LC, lactacystin]
concentration tolerated in cell culture [9]: up to 6 μM
inhibition of protease activity [4]: not possible to detect any inhibition
inhibitory action on Gag processing by HIV-1 protease [4]: no inhibitory action whatsoever

CC[C@H](C)[C@H](NC(=O)[C@H]([C@@H](C)CC)N(C)C(C)=O)C(=O)N[C@H](C(=O)N[C@@H](CC(C)C)C(=O)[C@@]1(C)CO1)[C@@H](C)O [epoxomicin]
concentration from which toxic symptoms appeared ([8]; human, 48 h): ≥ 100 nM
